Structures can show the parent of a compound that is named as a salt.

What is called IC50 is the point on the concentration scale where inhibition reaches its midpoint.

The test deals with T1, human recombinant CD38 enzyme (Homo sapiens, UniProt P28907).
T1 construct: purchased R&D Systems H7006
T1 sequence (P28907 1-300): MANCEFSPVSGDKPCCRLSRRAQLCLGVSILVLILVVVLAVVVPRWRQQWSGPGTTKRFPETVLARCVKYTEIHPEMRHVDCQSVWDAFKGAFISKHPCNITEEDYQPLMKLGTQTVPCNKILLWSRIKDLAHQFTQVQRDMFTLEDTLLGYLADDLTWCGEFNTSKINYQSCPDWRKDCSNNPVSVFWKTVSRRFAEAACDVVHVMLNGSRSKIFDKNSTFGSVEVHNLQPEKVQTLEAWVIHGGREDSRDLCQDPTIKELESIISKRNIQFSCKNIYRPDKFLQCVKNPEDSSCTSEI
The experiment in a line: Human recombinant enzyme assay (fluorimetric CD38 enzyme assay, ε-NAD substrate). The settings on record: recombinant CD38 100 ng/ml, ε-NAD 100 µM, pH = 6.0, 37°C, reaction time 30 min; read-out: IC50 (nM) ENAD. It is filed as biochemical. The protocol: Enzyme assay on human recombinant CD38 enzyme were performed in order to determine the in vitro potency of the newly synthesized compounds. IC50 values were determined for the test compounds and used to explore the structure-activity relationships (SAR).
N6-etheno-NAD (ε-NAD), a NAD analogue previously shown to be a convenient substrate of CD38 enzyme activity (Graeff et al. J. Biol. Chem. 269, pp 30260-30367, […]) was used to measure the activity of human recombinant CD38 and cell surface enzyme activity.
A fluorimetric CD38 enzyme assay was performed as described by Graeff et al. The reaction was started with 10 µl of N6-etheno-NAD (ε-NAD) substrate, final concentration 100 µM, in a final volume of 0.1 ml buffered with 50 mM HEPES, 0.05% BRIJ, pH = 6.0 containing 100 ng/ml recombinant CD38 (R&D Systems, H7006). Cleavage of ε-NAD, which causes a 10-fold fluorescence enhancement, was continuously followed at 37°C in a BMG Polarstar spectrofluorometer at an emission wavelength of 410 nm and an excitation of 300 nm, reaction time was 30 min. NADase activity was expressed as Δ relative fluorescence/min. The rate of enzyme reactions were compared in the presence and absence of inhibitor molecule, the IC50 values were calculated with Biostat Speed program.
`CC(=O)c1ccc(N2C(=O)N/C(=C\c3ccncc3)C2=O)cc1` [Compound 23, 3-(4-Acetyl-phenyl)-5-[1-pyridin-4-yl-meth-(Z)-ylidene]-imidazolidine-2,4-dione]: the IC50 is 26 nM.
Under `O=C1N/C(=C\c2ccncc2)C(=O)N1c1ccc(C(F)(F)F)cc1` [Compound 31, 5-[1-Pyridin-4-yl-meth-(Z)-ylidene]-3-(4-trifluoromethyl-phenyl)-imidazolidine-2,4-dione] stands 43 nM.
Under `CC1CCN(C(=O)c2ccc(N3C(=O)N/C(=C\c4ccncc4)C3=O)cc2)CC1` [Compound 47, 3-[4-(4-Methyl-piperidine-1-carbonyl)-phenyl]-5-[1-pyridin-4-yl-meth-(Z)-ylidene]-imidazolidine-2,4-dione] stands 74 nM; under `O=C(c1ccc(N2C(=O)N/C(=C\c3ccncc3)C2=O)cc1)N1CCCC1` [Compound 48, 5-[1-Pyridin-4-yl-meth-(Z)-ylidene]-3-[4-(pyrrolidine-1-carbonyl)-phenyl]-imidazolidine-2,4-dione], 52 nM.
As for `CCc1ccc(N2C(=O)N/C(=C\c3ccncc3)C2=O)cc1` [Compound 4, 3-(4-Ethyl-phenyl)-5-[1-pyridin-4-yl-meth-(Z)-ylidene]-imidazolidine-2,4-dione], the IC50 is 60 nM.
For `CS(=O)(=O)c1ccc(N2C(=O)N/C(=C\c3ccncc3)C2=O)cc1` [Compound 26, 3-(4-Methanesulfonyl-phenyl)-5-[1-pyridin-4-yl-meth-(Z)-ylidene]-imidazolidine-2,4-dione], the IC50 turned out to be 22 nM.
In the case of `O=C1N/C(=C\c2ccncc2)C(=O)N1Cc1ccccc1` [Compound 7, 3-Benzyl-5-[1-pyridin-4-yl-meth-(Z)-ylidene]-imidazolidine-2,4-dione], the IC50 was 50 nM.
Then `CCOC(=O)CN1C(=O)N/C(=C\c2ccncc2)C1=O` [Compound 43, {2,5-Dioxo-4-[1-pyridin-4-yl-meth-(Z)-ylidene]-imidazolidin-1-yl}-acetic acid ethyl ester], with 224 nM.
For `CCCN1C(=O)N/C(=C\c2ccncc2)C1=O` [Compound 41, 3-Propyl-5-[1-pyridin-4-yl-meth-(Z)-ylidene]-imidazolidine-2,4-dione], the IC50 was determined as 80 nM.
Then `O=C1N/C(=C\c2ccncc2)C(=O)N1c1ccc(Br)cc1` [Compound 20, 3-(4-Bromo-phenyl)-5-[1-pyridin-4-yl-meth-(Z)-ylidene]-imidazolidine-2,4-dione], with 20 nM.
Under `CC(C)(CO)CN1C(=O)N/C(=C\c2ccncc2)C1=O` [Compound 52, 3-(3-Hydroxy-2,2-dimethyl-propyl)-5-[1-pyridin-4-yl-meth-(Z)-ylidene]-imidazolidine-2,4-dione] stands 42 nM; under `N#Cc1ccc(N2C(=O)N/C(=C\c3ccncc3)C2=O)cc1` [Compound 11, 4-{2,5-Dioxo-4-[1-pyridin-4-yl-meth-(Z)-ylidene]-imidazolidin-1-yl} -benzonitrile], 30 nM.
In the case of `Cc1ccc(N2C(=O)N/C(=C\c3ccncc3)C2=O)cc1` [Compound 19, 5-[1-Pyndin-4-yl-meth-(Z)-ylidene]-3-p-totyl-imidazolidine-2,4-dione], the half-inhibitory concentration (IC50) was found to be 30 nM.
Then `O=C1N/C(=C\c2ccncc2)C(=O)N1CCN1CCCC1` [Compound 37, 5-[1-Pyridin-4-yl-meth-(Z)-ylidene]-3-(2-pyrrolidin-1-yl-ethyl)-imidazolidine-2,4-dione], with 290 nM; and `CCOc1ccc(CCN2C(=O)N/C(=C\c3ccncc3)C2=O)cc1OCC` [Compound 36, 3-[2-(3,4-Diethoxy-phenyl)-ethyl]-5-[1-pyridin-4-yl-meth-(Z)-ylidene]-imidazolidine-2,4-dione], with 250 nM; and `O=C1N/C(=C\c2ccncc2)C(=O)N1c1cccc(Cl)c1` [Compound 5, 3-(3-Chloro-phenyl)-5-[1-pyridin-4-yl-meth-(Z)-ylidene]-imidazolidine-2,4-dione HCl-salt], with 50 nM.
Under `O=C(c1ccc(N2C(=O)N/C(=C\c3ccncc3)C2=O)cc1)N1CCOCC1` [Compound 29, 3-[4-(Morpholine-4-carbonyl)-phenyl]-5-[1-pyridin-4-yl-meth-(Z)-ylidene]-imidazolidine-2,4-dione] stands 51 nM; under `O=C1N/C(=C\c2ccncc2)C(=O)N1CCCN1CCOCC1` [Compound 44, 3-(3-Morpholin-4-yl-propyl)-5-[1-pyridin-4-yl-meth-(Z)-ylidene]-imidazolidine-2,4-dione], 151 nM.
Then `O=C1N/C(=C\c2ccncc2)C(=O)N1CCc1ccccc1` [Compound 18, 3-Phenethyl-5-[1-pyridin-4-yl-meth-(Z)-ylidene]-imidazolidine-2,4-dione], with 60 nM; and `Cc1cccc(N2C(=O)N/C(=C\c3ccncc3)C2=O)c1` [Compound 3, 5-[1-Pyridin-4-yl-meth-(Z)-ylidene]-3-m-tolyl-imidazolidine-2,4-dione], with 50 nM; and `O=C(NC1CCCCC1)c1ccc(N2C(=O)N/C(=C\c3ccncc3)C2=O)cc1` [Compound 51, N-Cyclohexyl-4-{2,5-dioxo-4-[1-pyndin-4-yl-meth-(Z)-ylidene]-imidazolidin-1-yl}-benzamide], with 63 nM.
With `C[S+]([O-])c1ccc(N2C(=O)N/C(=C\c3ccncc3)C2=O)cc1` (centres unmarked) [Compound 25, 3-(4-Methanesulfinyl-phenyl)-5-[1-pyridin-4-yl-meth-(Z)-ylidene]-imidazolidine-2,4-dione], the IC50 stood at 60 nM.
Under `O=C(NC1CC1)c1ccc(N2C(=O)N/C(=C\c3ccncc3)C2=O)cc1` [Compound 50, N-Cyclopropyl-4-{2,5-dioxo-4-[1-pyridin-4-yl-meth-(Z)-ylidene]-imidazolidin-1-yl}-benzamide] stands 63 nM; under `O=C(O)CN1C(=O)N/C(=C\c2ccncc2)C1=O` [Compound 46, {2,5-Dioxo-4-[1-pyridin-4-yl-meth-(Z)-ylidene]-imidazolidin-1-yl}-acetic acid], 490 nM; under `O=C1N/C(=C\c2ccncc2)C(=O)N1c1ccc(OC(F)(F)F)cc1` [Compound 30, 5-[1-Pyridin-4-yl-meth-(Z)-ylidene]-3-(4-trifluoromethoxy-phenyl)-imidazolidine-2,4-dione], 28 nM.
For `COc1ccc(N2C(=O)N/C(=C\c3ccncc3)C2=O)cc1` [Compound 17, 3-(4-Methoxy-phenyl)-5-[1-pyridin-4-yl-meth-(Z)-ylidene]-imidazolidine-2,4-dione], the IC50 worked out at 55 nM.
Then `O=C1N/C(=C\c2ccncc2)C(=O)N1c1ccc(F)c(F)c1` [Compound 10, 3-(3,4-Difluoro-phenyl)-5-[1-pyridin-4-yl-meth-(Z)-ylidene]-imidazolidine-2,4-dione], with 30 nM; and `O=C1N/C(=C\c2ccncc2)C(=O)N1C1CCCCC1` [Compound 9, 3-Cyclohexyl-5-[1-pyridin-4-yl-meth-(Z)-ylidene]-imidazolidine-2,4-dione], with 292 nM.
Then `O=C1N/C(=C\c2ccncc2)C(=O)N1c1ccccc1` [Compound 1, 3-Phenyl-5-[1-pyridin-4-yl-meth-(Z)-ylidene]-imidazolidine-2,4-dione.HCl salt], with 30 nM; and `CCCCCCN1C(=O)N/C(=C\c2ccncc2)C1=O` [Compound 22, 3-Hexyl-5-[1-pyridin-4-yl-meth-(Z)-ylidene]-imidazotidine-2,4-dione], with 55 nM.
With `O=C(O)c1ccc(N2C(=O)N/C(=C\c3ccncc3)C2=O)cc1` [Compound 15, 4-{2,5-Dioxo-4-[1-pyridin-4-yl-meth-(Z)-ylidene]-imidazolidin-l-yl}-benzoic acid], the half-maximal inhibitory concentration (IC50) amounted to 110 nM.
Regarding `CSc1ccc(N2C(=O)N/C(=C\c3ccncc3)C2=O)cc1` [Compound 8, 3-(4-Methylsulfanyl-phenyl)-5-[1-pyridin-4-yl-meth-(Z)-ylidene]-imidazolidine-2,4-dione], the IC50 came out at 70 nM.
Then `O=C(NCCN1CCOCC1)c1cccc(N2C(=O)N/C(=C\c3ccncc3)C2=O)c1` [Compound 34, 3-{2,5-Dioxo-4-[1-pyridin-4-yl-meth-(Z)-ylidene]-imidazolidin-1-yl}-N-(2-morpholin-4-yl-ethyl)-benzamide], with 65 nM.
As for `CCC(C)N1C(=O)N/C(=C\c2ccncc2)C1=O` (centres unmarked) [Compound 42, 3-sec-Butyl-5-[1-pyridin-4-yl-meth-(Z)-ylidene]-imidazolidine-2,4-dione], the IC50 was determined as 868 nM.
Turning to `O=C1N/C(=C\c2ccncc2)C(=O)N1C1CCC(O)CC1` (centres unmarked) [Compound 40, 3-(4-Hydroxy-cyclohexyl)-5-[1-pyridin-4-yl-meth-(Z)-ylidene]-imidazolidine-2,4-dione], the concentration for half-maximal inhibition (IC50) is 214 nM.
